Results: US12031897B2, “Target-locking single-molecule nanoscopy” (Memorial Sloan Kettering Cancer Center, priority 2019, dated 2024)
Values joined by “and” are separate entries in the source; they are usually repeats but may differ in a detail not shown here. Equal values may be shown once.

Columns and labels:
[1] = test system: Pou5f1 transcription site (MCP-mNeonGreen nascent RNA); assay: MCP-mNeonGreen nascent transcription at the endogenous Pou5f1 locus in mESCs (live-cell imaging); format: cell-based, mouse
Experimental: All the mESCs were cultured and maintained in +2i media with appropriate selection drugs on 0.1% gelatin-coated dishes, at 37° C. in a humidified 5% CO2 incubator. +2i media contain D-MEM (Thermo Fisher Scientific 10313021), 15% fetal bovine serum (Gemini Bio 100-500), 0.1 mM β-mercaptoethanol (Thermo Fisher Scientific 21985023), 2 mM L-alanyl-L-glutamine (Thermo Fisher Scientific 35050079), 1×MEM nonessential amino acids (Thermo Fisher Scientific 11140076), 1000 U/mL LIF (Millipore ESG1107), […] (Millipore 361559) and 1 μM PD0325901 (Axon Medichem 1408). OMG and NMG SNAP-Rpb1 cells were cultured with +2i media plus 3 μg/ml α-amanitin.
(§1) Before imaging, cells were seeded onto 8-chamber coverglass (LabTek, 155411) coated with 5 μg/ml laminin (BioLamina LN511), in −2i media (OMG) or +2i media (NMG) and appropriate drugs. For SiR staining, cells were labeled with media containing 0.3 μM SiR-BG for 10 mins, at 37° C., followed by three washes with new media.
Wide-Field Cell Imaging Experiments. Live cell imaging experiments (tdPCP-EGFP and MCP-mNeonGreen tracking). For time-lapse imaging, a z-stack of 11 frames at 1 frame/second was acquired, by stepping the sample along the z-axis using the nanopositioning stage (250 nm steps). The CCD data were analyzed using IDL 6.4 (ITTVIS). Maximum projection images were calculated for each stack, and the resulting 11 sec/frame movie was used to track the intensities of individual tdPCP-EGFP-tagged transcription sites. A particle tracking routine (Crocker and Grier, 1996) was used for finding the positions of the transcription site in each frame and linking them into a 2D trajectory. The intensity trace of tdPCP-EGFP at the transcription site was corrected for photo-bleaching using the time trace of tdPCP-EGFP in a nearby nuclear region. The auto-correlation function was calculated (for the tdPCP-EGFP fluctuation analysis), or the data were imported in Origin 8.5.0 (OriginLab) and the trace fitted to a single-exponential decay (for the transcription inhibition experiments).

[2] = test system: H3K27ac at the Pou5f1 locus; assay: ChIP-qPCR analysis of H3K27ac after A-485 treatment; format: cell-based, mouse; conditions: for H3K27ac characteristic decay time: 1 μM A-485
Experimental: ChIP-qPCR analysis of H3K27ac after A-485 treatment. For H3K27ac and H3 ChIP-qPCR experiments, confluent 10 cm dishes (˜3×10^6 OMG SNAP-Sox2 cells) were treated with 1 μM A-485 (Structural Genomics Consortium) or 0.1% v/v DMSO for the indicated times. Fixation, cell lysis, sonicated chromatin preparation, immunoprecipitation and qPCR analysis were performed as described for OMG SNAP-Rpb1 cells in the previous section, with the exception that 5 μg H3K27ac antibody (Active Motif 39685) or 5 μg H3 antibody (Active Motif 39763) were used for each IP respectively.

[3] = test system: Sox2 foci at the Pou5f1 locus; assay: Sox2 cluster signal at Pou5f1 upon inhibition (live-cell confocal/STED scans); format: cell-based, mouse; conditions: Pou5f1
Description: Contrary to Brd4, Med22 and Cdk9, Sox2 clustering persists through transcription inhibition by either JQ1 or FVP (FIG. 8D). The differential sensitivities between factors and modes of transcription inhibition unveil a hierarchy of molecular transactions that control Pou5f1 transcription: Sox2 binding occurs upstream of Cdk9/Med22/Brd4 recruitment and accumulation of all of 4 regulatory factors occurs upstream of Pol II release into productive elongation. […] For real-time confocal and STED imaging, example implementations may program the wave generator to scan 2 μm×2 μm or 1 μm×1 μm xy areas in 0.8 sec or 0.2 sec respectively. 3D scanning was performed (via, e.g., detection system 150) by acquiring 5 xy scans while moving the stage by 0.5 μm in z between scans. TTL pulses corresponding to single-photon events from the APDs, together with the trigger pulses from the wave generator were detected using a field-programmable gate array (FPGA) data acquisition system (National Instruments, PCIe-7852R). Before imaging, cells were seeded onto 8-chamber coverglass (LabTek, 155411) coated with 5 μg/ml laminin (BioLamina LN511), in -2i media (OMG) or +2i media (NMG) and appropriate drugs. For SiR staining, cells were labeled with media containing 0.3 μM SiR-BG for 10 mins, at 37° C., followed by three washes with new media. Targeted integration of SNAP-tag in the endogenous Sox2, Cdk9, Brd4 and Med22 genes. To generate OMG or NMG SNAP-Sox2 targeted cells, OMG-1 or NMG mESCs (1×106) were transfected with 10 μg SNAP-Sox2 donor vector and 0.6 μg […] vector. 10 days after transfection, the cells were trypsinized, labeled with 0.3 μM SiR-BG for 10 mins, rinsed three times with new media, followed by immediate fluorescence-activated cell sorting (FACS). All the SiR-positive cells were collected, expanded for 2 weeks, trypsinized, labeled with SiR-BG and sorted again. Almost 100% SNAP positive pools were obtained from the second round of sorting and individual clones were picked and expanded. Homozygous clones (dubbed “OMG SNAP-Sox2 clone 8” and NMG SNAP-Sox2 clone 3'' respectively) with both Sox2 alleles correctly targeted with SNAP-tag integrations and that show SiR nuclear staining were selected for all further experiments.

[4] = molecular target: T1, Brd4 foci at the Pou5f1 locus (Mus musculus, UniProt Q9ESU6); assay: Brd4 cluster signal at Pou5f1 upon inhibition (live-cell confocal/STED scans); format: cell-based; conditions: Pou5f1
T1 construct: integrating a SNAP-tag at the N-terminus of the endogenous Brd4; endogenous in cells; host or cells: mouse ESCs OMG-1, homozygous SNAP-Brd4 knock-in clone 9 (printed as 'OMG SNAP-Cdk9 clone 9')
Experimental: For real-time confocal and STED imaging, example implementations may program the wave generator to scan 2 μm×2 μm or 1 μm×1 μm xy areas in 0.8 sec or 0.2 sec respectively. 3D scanning was performed (via, e.g., detection system 150) by acquiring 5 xy scans while moving the stage by 0.5 μm in z between scans. TTL pulses corresponding to single-photon events from the APDs, together with the trigger pulses from the wave generator were detected using a field-programmable gate array (FPGA) data acquisition system (National Instruments, PCIe-7852R).
as §1
To generate OMG or NMG SNAP-Brd4 targeted cells, OMG-1 or NMG mESCs (1×106) were transfected with 10 μg SNAP-Brd4 donor vector and 0.6 μg espCas9-gRNA-Brd4 vector. 10 days after transfection, the cells were trypsinized, labeled with SiR-BG and subjected to FACS, generating a first-round SiR-positive pool. This pool was then expanded, stained with SiR-BG and subjected to second FACS round and individual clones were picked and expanded.

For `CNC(=O)Nc1ccc2c(c1)CC[C@@]21OC(=O)N(CC(=O)N(Cc2ccc(F)cc2)[C@@H](C)C(F)(F)F)C1=O` [A-485], the “time until nascent Pou5f1 transcription shuts down” value ([1]; 1 μM A-485) was ≤ 20 min, the “MCP decay time upon p300/CBP HAT inhibition” value ([1]; Pou5f1, mESCs, 1 μM A-485, mean±S.D., n=17) was 635 s and 635 ± 350 s and the transcription shutdown time-scale ([1]; Pou5f1, upon A-485 inhibition) was 10.5 min. The “response of individual Pou5f1 transcription sites at intermediate inhibitor concentration” value ([1]; intermediate [A-485] or [JQ1]) was “all-or-none responses”, the “H3K27ac characteristic decay time” value ([2]; primer pair 4) was 7 ± 2 min and the “H3K27ac characteristic decay time” value ([2]; primer pair 5) was 7 ± 4 min. The “H3K27ac characteristic decay time” value ([2]; primer pair 6) was 5 ± 1 min, the “H3K27ac characteristic decay time” value ([2]; primer pair 7) was 13 ± 4 min and the “H3K27ac loss kinetics” value ([2]; upon A-485 inhibition) was ~7 min. For the same compound, the “Sox2 cluster size characteristic decay time” value ([3]; upon A-485 inhibition) was 12.5 min, the “Sox2 signal exponential fit τ” value ([3]; upon adding 1 μM A-485 (FIG. 8I legend)) was 12.5 ± 8.6 s and the “Brd4 signal exponential fit τ” value ([4]; inhibition with 1 μM A-485 (FIG. 16J legend)) was 8 ± 1 s. The “Brd4 cluster shrinking time” value ([4]; upon A-485 inhibition) was 8 min.
